Data published in patent US20250129103A1, “METHODS FOR TREATMENT OF CANCER” (Frontier Medicines Corporation, priority 2022, published 2025).
In brackets after ≈: the same amount, converted by molar mass.

How the values were obtained:
[1] = Determination of logD (1-octanol / phosphate buffer pH 7.4); format: physicochemical; conditions: 1-octanol/phosphate buffer, pH 7.4, pH 7.4, 1-octanol/phosphate buffer; read-out: Log D, pH 7.4
Summary of the method: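 Each phase analysed by LCMS after 1 h shaking at 800 rpm and centrifugation, room temperature. Phases were mutually saturated 1-octanol and 100 mM phosphate buffer at pH 7.4. LogD derived from the phase concentrations.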

[2] = molecular target: KRAS G12C (GMPPNP-loaded) and cRAF (Ras-binding domain) interaction (Homo sapiens (Human), UniProt P01116, C118S/C51S/C80L/G12C); experiment: Inhibition of KRAS G12C and cRAF binding (AlphaScreen); conditions: KRAS G12C loaded with GMPPNP, cRaf RBD, 2 hours preincubation; read-out: Raf-1 RBD K-Ras IC50
Sequence of KRAS G12C (GMPPNP-loaded) and cRAF (Ras-binding domain) interaction (P01116 other isoform, or with tags, fused parts or gaps G12C/C51S/C80L/C118S): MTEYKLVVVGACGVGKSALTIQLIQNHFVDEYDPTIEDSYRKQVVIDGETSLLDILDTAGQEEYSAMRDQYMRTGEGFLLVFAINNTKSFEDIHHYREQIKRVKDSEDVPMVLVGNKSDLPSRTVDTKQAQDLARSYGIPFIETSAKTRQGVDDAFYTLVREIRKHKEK
Summary of the method: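 AlphaScreen readout (680 nm excitation, 570 nm emission) of RBD binding after a 60-90 min bead step at room temperature. This step follows 2 h compound exposure of GMPPNP-preloaded KRAS G12C in Hepes pH 7.4 buffer with MgCl2 and 10 μM GMPPNP.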

[3] = Determination of kinetic solubility (pH 7.4); format: physicochemical; conditions: phosphate buffer, pH 7.4, aqueous buffer, kinetic from dmso stock, 50 mM phosphate buffer pH 7.4, read-out: Ksol, pH 7.4
Summary of the method: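 Solubility taken from filtrate peak areas on a calibration curve (HPLC-UV, LC-MS/MS). Before filtration and centrifugation, compound was shaken for 2 h at room temperature in pH 7.4 50 mM phosphate buffer.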

[4] = molecular target: KRAS G12C (GMPPNP-loaded) and PI3Ka (Ras-binding domain) interaction (Homo sapiens (Human), UniProt P01116, C118S/C51S/C80L/G12C); experiment: Inhibition of KRAS G12C and PI3Ka binding (AlphaScreen); conditions: KRAS G12C loaded with GMPPNP, PI3Ka RBD, 2 hours preincubation; read-out: PI3K RBD K-Ras IC50
Sequence of KRAS G12C (GMPPNP-loaded) and PI3Ka (Ras-binding domain) interaction (P01116 other isoform, or with tags, fused parts or gaps G12C/C51S/C80L/C118S): as above
Summary of the method: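 Biotin-AviTag Cys-light KRAS G12C (aa 1-169, C51S/C80L/C118S), GMPPNP-loaded, 1.5 nM, preincubated 2 h with compound, then His-tagged PI3Ka RBD (aa 157-300, 100 nM) plus AlphaScreen beads added for 60-90 min, RT. Buffer Hepes pH 7.4, 10 μM GMPPNP, 2% DMSO; 10-point 1:3 from 50 μM; 4-parameter IC50.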

| SMILES | logD [1] | IC50 [2] [nM] | solubility kinetic at 2 h [3] [µg/mL] | IC50 [4] [nM] |
| --- | --- | --- | --- | --- |
| N#CC[C@H]1CN(c2nc(OC[C@@]34CCCN3C[C@H](F)C4)nc3c(F)c(-c4cccc5ccc(F)c(F)c45)ncc23)CCN1C(=O)/C=C/CN1C2COCC1C2 [Compound 224] | 2.96 | < 10 | 84.6 (≈ 112 µM) | < 10 |
| N#CC[C@H]1CN(c2nc(OCC34CCCN3CCC4)nc3c2CCN(c2cccc4ccc(F)c(Cl)c24)C3)CCN1C(=O)/C=C/CN1CCOCC1 [Compound 50] | 2.27 | < 10 | 124 (≈ 171 µM) | < 10 |
| N#CC[C@H]1CN(c2nc(OC[C@@]34CCCN3C[C@H](F)C4)nc3c(F)c(-c4cccc5cccc(Cl)c45)ncc23)CCN1C(=O)/C=C/CN1CC[C@@H](F)C1 [Compound 96, 2-((S)-4-(7-(8-chloronaphthalen-1-yl)-8-fluoro-2-(((2R,7aS)-2-fluorohexahydro-1H-pyrrolizin-7a-yl)methoxy)pyrido[4,3-d]pyrimidin-4-yl)-1-((E)-4-((R)-3-fluoropyrrolidin-1-yl)but-2-enoyl)piperazin-2-yl)acetonitrile] | 2.82 | < 10 | 64.4 (≈ 86.5 µM) | < 10 |
| Cc1nccc(/C=C/C(=O)N2CCN(c3nc(OC[C@@]45CCCN4C[C@H](F)C5)nc4c(F)c(-c5cccc6cccc(Cl)c56)ncc34)C[C@@H]2CC#N)n1 [Compound 140] | 3.45 | < 10 | 1.86 (≈ 2.53 µM) | < 10 |
| Cc1nsc(/C=C/C(=O)N2CCN(c3nc(OCC45CCCN4CCC5)nc4c(F)c(-c5cccc6cccc(Cl)c56)ncc34)C[C@@H]2CC#N)n1 [Compound 143] | 2.39 | < 10 | 87.8 (≈ 121 µM) | < 10 |
| N#CC[C@H]1CN(c2nc(OCC34CCCN3CCC4)nc3c2CCN(c2cccc4cccc(Cl)c24)C3)CCN1C(=O)/C=C/c1nc(C(F)F)no1 [Compound 19] | 3.33 | < 10 | 24.4 (≈ 33.5 µM) | < 10 |
| Cc1nsc(/C=C/C(=O)N2CCN(c3nc(OCC45CCCN4CCC5)nc4c3CCN(c3cccc5ccc(F)c(Cl)c35)C4)C[C@@H]2CC#N)n1 [Compound 141] | 3.43 | < 10 | 84 (≈ 115 µM) | < 10 |
| N#CC[C@H]1CN(c2nc(OC[C@@]34CCCN3C[C@H](F)C4)nc3c(F)c(-c4cccc5cccc(Cl)c45)ncc23)CCN1C(=O)/C=C/CN1CC2CC(C1)O2 [Example 86, 2-((2S)-1-((E)-4-(6-oxa-3-azabicyclo[3.1.1]heptan-3-yl)but-2-enoyl)-4-(7-(8-chloronaphthalen-1-yl)-8-fluoro-2-(((2R,7aS)-2-fluorohexahydro-1H-pyrrolizin-7a-yl)methoxy)pyrido[4,3-d]pyrimidin-4-yl)piperazin-2-yl)acetonitrile] | 2.9 | < 10 | 96.6 (≈ 128 µM) | < 10 |
| Cc1cc(N)nc(-c2ncc3c(N4CCN(C(=O)/C=C/CN5CCOCC5)[C@@H](CC#N)C4)nc(OC[C@@]45CCCN4C[C@H](F)C5)nc3c2F)c1C(F)(F)F [Compound 55] | 1.53 | 10 to 100 | 128 (≈ 169 µM) | 10 to 100 |
| N#CC[C@H]1CN(c2nc(OC[C@@]34CCCN3C[C@H](F)C4)nc3c2CCN(c2cccc4ccc(F)c(Cl)c24)C3)CCN1C(=O)/C=C/CN1CCOCC1 [Compound 52] | 3.8 | < 10 | 23.8 (≈ 31.8 µM) | < 10 |
| CC(F)(F)c1noc(/C=C/C(=O)N2CCN(c3nc(OC[C@@]45CCCN4C[C@H](F)C5)nc4c(F)c(-c5cccc6cccc(Cl)c56)ncc34)C[C@@H]2CC#N)n1 [Example 14, 2-((S)-4-(7-(8-chloronaphthalen-1-yl)-8-fluoro-2-(((2R,7aS)-2-fluorotetrahydro-1H-pyrrolizin-7a(5H)-yl)methoxy)pyrido[4,3-d]pyrimidin-4-yl)-1-((E)-3-(3-(1,1-difluoroethyl)-1,2,4-oxadiazol-5-yl)acryloyl)piperazin-2-yl)acetonitrile] | 4.49 | < 10 | 0.04 (≈ 0.0515 µM) | < 10 |
